Experimental data published in patent US20230226065A1, “ANTI-INFLAMMATORY COMPOSITIONS, METHODS AND USES THEREOF” (COMVITA LIMITED, priority 2020, published 2023).

Experiments:
[1] = Simulated gastrointestinal digestion (SGF then SIF), HPLC retention of 3,6,7-trimethyllumazine; assay type: in vitro ADME; conditions: for remaining amount of 3,6,7-trimethyllumazine: pure compound
Description: The simulated gastrointestinal digestion was carried out using a static model. The simulated gastric fluid (SGF) and the simulated intestinal fluid (SIF) were prepared in accordance with a global consensus protocol (Minekus et al 2014). The SGF has a pH 3 to mimic the fed-state of the stomach. When mixed with Manuka honey (or a honey solution), the final mixture contains 2000 U/mL of pepsin. The SIF has pH 7 to mimic the fed-state of the small intestine, containing 2 mg/mL of pancreatin (8×USP, or based on a protease activity of 200 U/mL) and 20 mM of porcine bile extract before use.
In the simulated gastric digestion, 2 g of Manuka honey was incubated in 2 mL of SGF at 37° C. under 95 rpm shaking for a period of 2 h (triplicates). At selected time points (0, 30, 60 and 120 min), a predetermined volume (0.1 mL) of the mixture was withdrawn for 3,6,7-trimethyllumazine analysis. The solution for analysis was kept on ice with an addition of 0.1 mL SIF (pH 7) to stop pepsin activity. As a control group, a pure 3,6,7-trimethyllumazine solution was treated in the same way for comparative purposes.
Following the 2 h gastric digestion, the resulting solution was mixed with SIF (pH 7) at a volume ratio of 1:1, to have a final mixture that contains 1 mg/mL of pancreatin and 10 mM of porcine bile extract. This mixture was incubated at 37° C. under 95 rpm shaking for 4 h (triplicates). At selected time points (0, 60, 120 and 240 min), a predetermined volume (0.1 mL) of the mixture was withdrawn for 3,6,7-trimethyllumazine concentration analysis. The pancreatin activity in the withdrawn solution was quenched by adding 5 mmol/L Pefabloc® (Egger et al 2019).
The gastric and intestinal digesta for 3,6,7-trimethyllumazine analysis was treated to remove insoluble fractions (e.g. pancreatin) before HPLC analysis. In brief, all samples were diluted with 0.1% formic acid and then centrifuged at 14,000 rpm for 10 min. Supernatant was taken for analysis. The amount of 3,6,7-trimethyllumazine at different time points was analysed using a reverse-phase HPLC system, which has been previously used to analyse 3,6,7-trimethyllumazine and leptosperin as reported in the literature (Bin Lin et al 2017). In brief, the samples were diluted 5 times in 0.1% v/v formic acid. A Hypersil GOLD column (150×2.1 mm, […]) was used as the stationary phase (25° C.), and the mobile phase will consist of 0.1% formic acid (phase A), and 80:20 acetonitrile: 0.1% formic acid (phase B). […] The signal of 3,6,7-trimethyllumazine was detected at 320 nm.

active MMP-9 = assay: Gelatin gel zymography, active MMP-9 band; assay type: biochemical; conditions: active MMP-9 (~37 kDa band); densitometry vs no inhibitor; n=5
Description: Novex™ 10% Zymogram Plus (Gelatin) Protein Gels (15 wells) were purchased from Thermo Fisher Scientific Inc. (Auckland, New Zealand). All chemicals required for the zymogram analysis were also purchased from Thermo Fisher, these include Novex™ Sharp Pre-stained Protein Standard, Novex Tris-Glycine SDS sample buffer, Novex Tris-Glycine SDS running buffer, Novex Zymogram renaturing buffer and Novex Zymogram developing buffer. […] Gelatin gel zymography was performed as an independent technique to confirm the inhibition of MMP-9 from 3,6,7-trimethyllumazine. This technique uses a non-reducing SDS-PAGE (sodium dodecyl sulfate polyacrylamide gel electrophoresis) gel embedded with gelatin. Proteins are migrated and separated during electrophoresis. The SDS is removed after electrophoresis and the gel is then incubated with essential cofactors required for enzymatic activity. The embedded gelatin can be digested by MMP-9, resulting in clear bands on a dark blue background after staining with Coomassie blue dyes. The gelatinase activity is represented by band densitometry, which can be assessed with image analysis software. […]
After incubation, the gelatin gel was rinsed with water for three times (5 min each) under gentle agitation. […] MMP-9 activities were analysed using densitometry on ImageJ Version 1.52a. […]

For `Cc1nc2[nH]c(=O)n(C)c(=O)c2nc1C` [3,6,7-trimethyllumazine], the “degradation during gastrointestinal digestion” value ([1]; 50% (w/w) Manuka honey solutions or pure compound directly exposed to digestive media) was “No significant degradation”, the “initial amount recovered in the digesta” value ([1]; from four Manuka honey samples, end of 2 h gastric plus 4 h intestinal digestion) was about 100% and the “remaining amount of 3,6,7-trimethyllumazine” value (“remaining amount” below) ([1]; SGF, 0 h, mean ± SD, n=3) was 682 ± 90 ng/mL. For the same compound, the “remaining amount” value ([1]; SGF, 0.5 h) was 703 ± 57 ng/mL, the “remaining amount” value ([1]; SGF, 1 h) was 728 ± 28 ng/mL and the “remaining amount” value ([1]; SGF, 2 h) was 688 ± 72 ng/mL. For the same compound, the “remaining amount” value ([1]; SIF, 0 h) was 736 ± 6 ng/mL, the “remaining amount” value ([1]; SIF, 1 h) was 740 ± 12 ng/mL and the “remaining amount” value ([1]; SIF, 2 h) was 732 ± 10 ng/mL. The “remaining amount” value ([1]; SIF, 4 h) was 730 ± 3 ng/mL and the “percentage inhibition of gelatinase activity” value (active MMP-9) was 31%.
